Read-outs that look alike come from different tables or passages of the source.
Assays:
Aurora B = Aurora B (Homo sapiens, UniProt Q96GD4); assay: Aurora B inhibition assay (Z-Lyte); assay type: biochemical; settings: read-out: IC50 Ranges Aurora B
Protocol: Aurora B inhibition was determined using the Z-Lyte assay kit from Invitrogen. […] The % inhibition values were determined according to the manufacturer's directions and IC50 values were obtained using a non-linear 4 point logistic curve fit (XLfit4, IDBS)

human PLK4 = molecular target: T1, human PLK4 (Homo sapiens, UniProt O00444); assay: PLK4 inhibition assay (indirect ELISA); assay type: biochemical
T1 construct: amino terminal GST fusion of residues 1-391 of human PLK4; made in house; host or cells: E. coli
T1 sequence (O00444 1-391): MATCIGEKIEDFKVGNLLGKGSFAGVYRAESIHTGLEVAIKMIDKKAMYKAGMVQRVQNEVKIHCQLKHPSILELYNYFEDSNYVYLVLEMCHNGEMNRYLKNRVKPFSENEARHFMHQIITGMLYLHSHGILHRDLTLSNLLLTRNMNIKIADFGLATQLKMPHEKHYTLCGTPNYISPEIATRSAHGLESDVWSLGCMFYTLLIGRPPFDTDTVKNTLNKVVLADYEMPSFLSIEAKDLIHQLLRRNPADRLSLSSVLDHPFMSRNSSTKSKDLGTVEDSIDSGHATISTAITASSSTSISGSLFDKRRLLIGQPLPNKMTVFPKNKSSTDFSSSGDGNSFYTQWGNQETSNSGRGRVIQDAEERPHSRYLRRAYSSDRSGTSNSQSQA
Protocol: PLK4 activity was measured using an indirect ELISA detection system. […] The colourimetric reaction was allowed to continue for 5 minutes, followed by addition of stop solution (0.5 N sulphuric acid), and quantified by detection at 450 nm with either a monochromatic or filter based plate reader (Molecular Devices M5 or Beckman DTX880, respectively).
Compounds were pre-incubated in the presence of enzyme for 15 minutes prior to addition of ATP and the activity remaining quantified using the above described activity assay. […] The IC50 value was determined using a non-linear 4 point logistic curve fit (XLfit4, IDBS) with the formula; (A+(B/(1+((x/C)^D)))), where A=background value, B=range, C=inflection point, D=curve fit parameter.

Aurora B, sequence (Q96GD4 whole entry): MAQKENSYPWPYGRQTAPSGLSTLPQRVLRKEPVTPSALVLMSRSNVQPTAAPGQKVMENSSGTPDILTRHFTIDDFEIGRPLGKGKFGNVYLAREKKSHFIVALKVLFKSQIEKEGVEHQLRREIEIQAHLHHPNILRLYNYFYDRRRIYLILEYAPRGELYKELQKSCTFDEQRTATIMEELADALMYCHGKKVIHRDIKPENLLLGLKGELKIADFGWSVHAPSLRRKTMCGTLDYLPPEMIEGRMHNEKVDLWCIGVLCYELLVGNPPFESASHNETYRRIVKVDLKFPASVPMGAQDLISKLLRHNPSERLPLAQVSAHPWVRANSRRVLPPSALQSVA

SMILES: COc1ccc2c(c1)[C@]1(C[C@H]1c1ccc3c(C#Cc4ccc(CN5CCOCC5)cc4)n[nH]c3c1)C(=O)N2 (relative stereo) [Example A138, (1R*,2S*)-5′-methoxy-2-(3-((4-(morpholinomethyl)phenyl)ethynyl)-1H-indazol-6-yl)spiro[cyclopropane-1,3′-indolin]-2′-one 2,2,2-trifluoroacetate]
- IC50 (Aurora B): < 100 nM
- IC50 (human PLK4; read-out: IC50 Ranges PLK4): < 100 nM

SMILES: O=C1Nc2ccccc2[C@]12C[C@H]2c1ccc2c(-c3cccc(CN4CCOCC4)c3)n[nH]c2c1 (relative stereo) [Example A153, (1R*,2S*)-2-(3-(3-(morpholinomethyl)phenyl)-1H-indazol-6-yl)spiro [cyclopropane-1,3′-indolin]-2′-one 2,2,2-trifluoroacetate]
- IC50 (human PLK4; read-out: IC50 Ranges PLK4): 100 to 1000 nM

SMILES: COc1ccc2c(c1)[C@]1(C[C@H]1c1ccc3c(-c4ccc(N5CCC(N(C)C)CC5)cc4)n[nH]c3c1)C(=O)N2 (relative stereo) [Example A119, (1R*,2S*)-2-(3-(4-(4-(dimethylamino)piperidin-1-yl)phenyl)-1H-indazol-6-yl)-5′-methoxy spiro[cyclopropane-1,3′-indolin]-2′-one 2,2,2-trifluoroacetate]
- IC50 (Aurora B): < 100 nM
- IC50 (human PLK4; read-out: IC50 Ranges PLK4): < 100 nM

SMILES: CN1CCN(c2ccc(-c3n[nH]c4cc([C@@H]5C[C@@]56C(=O)Nc5ccc(F)cc56)ccc34)cn2)CC1 (relative stereo) [Example A210, (1R*,2S*)-5′-fluoro-2-(3-(6-(4-methylpiperazine-1-yl)pyridine-3-yl)-1H-indazol-6-yl)-spiro[cyclopropane-1,3′-indolin]-2′-one]
- IC50 (Aurora B): < 100 nM

SMILES: O=C1Nc2ncc(Br)cc2[C@]12C[C@H]2c1ccc2cn[nH]c2c1 (racemic) [Example A12, (1R*,2S*)-5′-bromo-2-(1H-indazol-6-yl)spiro[cyclopropane-1,3′-pyrrolo[2,3-b]pyridin]-2′(1′H)-one]
- IC50 (human PLK4; read-out: IC50 Ranges PLK4): 100 to 1000 nM

SMILES: COc1ccc2c(c1)[C@]1(C[C@H]1c1ccc3c(/C=C/c4ccc(N5CCNCC5)cc4)n[nH]c3c1)C(=O)N2 (relative stereo) [Example A182, (1R*,2S*)-5′-methoxy-2-(3-(4-(piperazin-1-yl)styryl)-1H-indazol-6-yl)spiro[cyclopropane-1,3′-indolin]-2′-one 2,2,2-trifluoroacetate]
- IC50 (Aurora B): < 100 nM
- IC50 (human PLK4; read-out: IC50 Ranges PLK4): < 100 nM

SMILES: COc1ccc2c(c1)[C@]1(C[C@H]1c1ccc3c(/C=C/c4ccc(N5CCN(C(C)C)CC5)cc4)n[nH]c3c1)C(=O)N2 (relative stereo) [Example A189, (1R*,2S*)-(E)-2-(3-(4-(4-isopropylpiperazin-1-yl)styryl)-1H-indazol-6-yl)-5′-methoxyspiro[cyclopropane-1,3′-indolin]-2′-one 2,2,2-trifluoroacetate]
- IC50 (Aurora B): < 100 nM
- IC50 (human PLK4; read-out: IC50 Ranges PLK4): < 100 nM

SMILES: COc1ccc2c(c1)[C@]1(C[C@H]1c1ccc3c(C#Cc4ccc(CN5CCN(C)CC5)cc4)n[nH]c3c1)C(=O)N2 (relative stereo) [Example A145, (1R*,2S*)-5′-methoxy-2-(3-((4-((4-methylpiperazin-1-yl)methyl)phenyl)ethynyl)-1H-indazol-6-yl)spiro[cyclopropane-1,3′-indolin]-2′-one bis(2,2,2-trifluoroacetate)]
- IC50 (Aurora B): 100 to 1000 nM
- IC50 (human PLK4; read-out: IC50 Ranges PLK4): < 100 nM

SMILES: COc1ccc2c(c1)[C@]1(C[C@@H]1c1ccc3c(-c4ccc(N5CCN(C)CC5)nc4)n[nH]c3c1)C(=O)N2 (relative stereo) [Example A17, (1R*,2R*)-5′-Methoxy-2-(3-(6-(4-methylpiperazin-1-yl)pyridin-3-yl)-1H-indazol-6-yl)spiro[cyclopropane-1,3′-indolin]-2′-one]
- IC50 (Aurora B): 100 to 1000 nM
- IC50 (human PLK4): < 100 nM

SMILES: CN1CCN(c2ccc(-c3n[nH]c4cc([C@@H]5C[C@@]56C(=O)Nc5ccc(OC(F)F)cc56)ccc34)cn2)CC1 (relative stereo) [Example A209, (1R*,2S*)-5′-(difluoromethoxy)-2-(3-(6-(4-methylpiperazine-1-yl)pyridine-3-yl)-1H-indazol-6-yl)spiro[cyclopropane-1,3′-indolin]-2′-one 2,2,2-trifluoro acetate]
- IC50 (Aurora B): < 100 nM
- IC50 (human PLK4; read-out: IC50 Ranges PLK4): < 100 nM

SMILES: COc1ccc2c(c1)[C@]1(C[C@H]1c1ccc3c(-c4ccc(N5CCC(O)CC5)cc4)n[nH]c3c1)C(=O)N2 (relative stereo) [Example A118, (1R*,2S*)-2-(3-(4-(4-hydroxypiperidin-1-yl)phenyl)-1H-indazol-6-yl)-5′-methoxyspiro[cyclopropane-1,3′-indolin]-2′-one 2,2,2-trifluoroacetate]
- IC50 (human PLK4; read-out: IC50 Ranges PLK4): < 100 nM

SMILES: O=C1Nc2ccc(F)cc2[C@]12C[C@H]2c1ccc2c(/C=C/c3ccc(N4CCOCC4)nc3)n[nH]c2c1 (relative stereo) [Example A207, (1R*,2S*)-5′-fluoro-2-(3-((E)-2-(6-morpholinopyridin-3-yl)vinyl)-1H-indazol-6-yl)spiro[cyclopropane-1,3′-indolin]-2′-one 2,2,2-trifluoroacetate]
- IC50 (Aurora B): < 100 nM
- IC50 (human PLK4; read-out: IC50 Ranges PLK4): < 100 nM

SMILES: NC(=O)CN1C(=O)[C@@]2(C[C@H]2c2ccc3c(/C=C/c4ccc(CN5CCCCC5)cc4)n[nH]c3c2)c2ccccc21 (relative stereo) [Example A165, 2-((1R*,2S*)-(E)-2′-oxo-2-(3-(4-(piperidin-1-ylmethyl)styryl)-1H-indazol-6-yl)spiro[cyclopropane-1,3′-indoline]-1′-yl)acetamide 2,2,2-trifluoroacetate]
- IC50 (Aurora B): < 100 nM
- IC50 (human PLK4; read-out: IC50 Ranges PLK4): < 100 nM

SMILES: CN1CCN(c2ccc(-c3n[nH]c4cc([C@@H]5C[C@@]56C(=O)Nc5ccc(Br)cc56)ccc34)cn2)CC1 (relative stereo) [Example A19, (1R*,2S*)-5′-bromo-2-(3-(6-(4-methylpiperazin-1-yl)pyridin-3-yl)-1H-indazol-6-yl)spiro[cyclopropane-1,3′-indolin]-2′-one]
- IC50 (Aurora B): < 100 nM
- IC50 (human PLK4; read-out: IC50 Ranges PLK4): < 100 nM

SMILES: CCN1Cc2ccc(/C=C/c3n[nH]c4cc([C@@H]5C[C@@]56C(=O)Nc5ccc(OC)cc56)ccc34)cc2C1 (relative stereo) [Example A190, (1R*,2S*)-2-(3-((E)-2-(2-ethylisoindolin-5-yl)vinyl)-1H-indazol-6-yl)-5′-methoxyspiro[cyclopropane-1,3′-indolin]-2′-one 2,2,2-trifluoroacetate]
- IC50 (Aurora B): < 100 nM
- IC50 (human PLK4; read-out: IC50 Ranges PLK4): < 100 nM

SMILES: CN1CCN(C(=O)c2ccc(-c3n[nH]c4cc([C@@H]5C[C@@]56C(=O)Nc5ccccc56)ccc34)cc2)CC1 (relative stereo) [Example A156, (1R*,2S*)-2-(3-(4-(4-methylpiperazine-1-carbonyl)phenyl)-1H-indazol-6-yl)spiro[cyclopropane-1,3′-indolin]-2′-one 2,2,2-trifluoroacetate]
- IC50 (Aurora B): 100 to 1000 nM
- IC50 (human PLK4; read-out: IC50 Ranges PLK4): < 100 nM

SMILES: CN1CCN(Cc2ccc(-c3n[nH]c4cc([C@@H]5C[C@@]56C(=O)Nc5ccccc56)ccc34)cc2)CC1 (relative stereo) [Example A155, (1R*,2S*)-2-(3-(4-((4-methylpiperazin-1-yl)methyl)phenyl)-1H-indazol-6-yl)spiro[cyclopropane-1,3′-indolin]-2′-one bis-2,2,2-trifluoroacetate]
- IC50 (Aurora B): 100 to 1000 nM
- IC50 (human PLK4; read-out: IC50 Ranges PLK4): < 100 nM

SMILES: CC(C)CCN1C(=O)[C@@]2(C[C@H]2c2ccc3c(/C=C/c4ccc(CN(C)C)cc4)n[nH]c3c2)c2ccccc21 (relative stereo) [Example A176, (1R*,2S*)-(E)-2-(3-(4-((dimethylamino)methyl)styryl)-1H-indazol-6-yl)-1′-isopentylspiro[cyclopropane-1,3′-indolin]-2′-one]
- IC50 (Aurora B): 100 to 1000 nM
- IC50 (human PLK4; read-out: IC50 Ranges PLK4): < 100 nM

SMILES: COc1ccc2c(c1)C1(CC1c1ccc3c(I)n[nH]c3c1)C(=O)N2 (stereo not drawn) [Example A6, (1R*,2S*)- and (1R*,2R*)-2-(3-iodo-1H-indazol-6-yl)-5-methoxyspiro-[cyclopropane-1,3′-indolin]-2′-one]
- IC50 (Aurora B): 100 to 1000 nM
- IC50 (human PLK4; read-out: IC50 Ranges PLK4): < 100 nM

SMILES: COc1ccc2c(c1)[C@]1(C[C@H]1c1ccc3c(-c4ccc(CN5CCN(C)CC5)cc4)n[nH]c3c1)C(=O)N2 (relative stereo) [Example A140, (1R*,2S*)-5′-methoxy-2-(3-(4-((4-methylpiperazin-1-yl)methyl)phenyl)-1H-indazol-6-yl)spiro[cyclopropane-1,3′-indolin]-2′-one bis-2,2,2-trifluoro acetate]
- IC50 (Aurora B): < 100 nM
- IC50 (human PLK4; read-out: IC50 Ranges PLK4): < 100 nM

SMILES: COc1ccc2c(c1)[C@]1(C[C@H]1c1ccc3c(-c4ccc(N5CCN(C)CC5)cc4)n[nH]c3c1)C(=O)N2C (relative stereo) [Example A100, (1R*,2S*)-5′-methoxy-1′-methyl-2-(3-(4-(4-methylpiperazin-1-yl)phenyl)-1H-indazol-6-yl)spiro[cyclopropane-1,3′-indolin]-2′-one 2,2,2-trifluoroacetate]
- IC50 (Aurora B): < 100 nM
- IC50 (human PLK4; read-out: IC50 Ranges PLK4): < 100 nM

SMILES: O=C1Nc2ccc(F)cc2[C@]12C[C@H]2c1ccc2c(I)n[nH]c2c1 (relative stereo) [Example A40, (1R*,2S*)-5′-fluoro-2-(3-iodo-1H-indazol-6-yl)spiro[cyclopropane-1,3′-indolin]-2′-one]
- IC50 (Aurora B): 100 to 1000 nM
- IC50 (human PLK4; read-out: IC50 Ranges PLK4): 100 to 1000 nM

SMILES: COc1ccc2c(c1)[C@]1(C[C@H]1c1ccc3c(-c4ccc(N5CCC(N(C)C)CC5)cc4)n[nH]c3c1)C(=O)N2 [Example A120, (1R,2S)-2-(3-(4-(4-(dimethylamino)piperidin-1-yl)phenyl)-1H-indazol-6-yl)-5′-methoxyspiro[cyclopropane-1,3′-indolin]-2′-one 2,2,2-trifluoroacetate]
- IC50 (Aurora B): < 100 nM
- IC50 (human PLK4; read-out: IC50 Ranges PLK4): < 100 nM

Reference: patent US8263596B2, “Kinase inhibitors and method of treating cancer” (University Health Network, priority 2010, dated 2012)
